Test system: fibronectin and vitronectin
Assay: not given
Conditions: cited from earlier work

| Compound | activity of the tri-peptide |
| --- | --- |
| arginine-glycine-aspartic acid [Arg-Gly-Asp] | low activity |

Test system: gpIIb/IIIa complex
Assay: not given
Conditions: snake venom polypeptides; cited from earlier work

| Compound | affinity for the gpIIb/IIIa complex |
| --- | --- |
| Echistatin | high affinity |

Test system: human platelets
Assay: ADP-stimulated platelet aggregation assay (gel-filtered human platelets)
Type: cell-based
Conditions: fibrinogen, CaCl2 1 mM, ADP-initiated, initial rate of increase of light transmittance, read-out: IC50 (inhibition of platelet aggregation)
From the text: In addition to the following preparative procedures, several examples of in-vitro bioactivity of compounds within the scope of the present invention are indicated. To illustrate, one test which is used to evaluate fibrinogen receptor antagonist activity is based on evaluation of inhibition of ADP-stimulated platelets. Aggregation requires that fibrinogen bind to and occupy the platelet fibrinogen receptor site. Inhibitors of fibrinogen binding inhibit aggregation. In the ADP-stimulated platelet aggregation assay used to determine inhibition associated with the compounds claimed in the instant invention, human platelets are isolated from fresh blood, collected into acid citrate/dextrose by differential centrifugation followed by gel filtration on Sepharose 2 B in divalent ion-free Tyrode's buffer (pH 7.4) containing 2% bovine serum albumin.
Platelet aggregation is measured at 37° C. in a Chronolog aggregometer. The reaction mixture contains gel-filtered human platelets (2×10^8 per ml), fibrinogen (100 micrograms per ml (ug/ml)), Ca^2+ (1 mM), and the compound to be tested. The aggregation is initiated by adding 10 μM ADP 1 minute after the other components are added. The reaction is then allowed to proceed for at least 2 minutes. The extent of inhibition of aggregation is expressed as the percentage of the rate of aggregation observed in the absence of inhibitor. The IC50 is the dose of a particular compound inhibiting aggregation by 50% relative to a control lacking the compound.
The test procedures employed to measure the anti-platelet aggregating activity of the compounds of the present invention are described below.
Blood was drawn into 0.1 volumes of acid citrate-dextrose (85 mM sodium citrate, 64 mM citric acid, 110 mM dextrose) by venipuncture from normal human volunteers. Platelet-rich plasma was prepared by centrifugation at 400× g for 12 minutes. PGEl (5 mg/ml) was added and platelets were collected by centrifugation at 800× g for 12 minutes. The platelet pellet was resuspended into human platelet buffer (140 mM NaCl, 7.9 mM KCl, 3.3 mM Na2 HPO4, 6 mM HEPES, 2% bovine serum albumin, 0.1% dextrose, pH 7.2) and filtered over Sepharose 2B that was previously equilibrated in human platelet buffer. Human fibrinogen ([…]) and Ca Cl2 (1 mM) were added and aggregation was initiated by the addition of […]. Aggregation was monitored by the initial rate of increase of light transmittance.

| Compound | IC50 |
| --- | --- |
| O=C(O)C(CNCc1ccccc1)Cc1ccc(OCCCCC2CCNCC2)cc1 (centres unmarked) [CH2 NHCH2 Ph, 2-[4-(4-Piperidin-4-yl)butyloxy]phenylmethyl-3-(benzylamino)propanoic acid] | 18 µM |
| O=C(NCC(Cc1ccc(OCCCCC2CCNCC2)cc1)C(=O)O)c1ccccc1 (centres unmarked) [CH2 NHC(O)Ph, 2-[4-(4-Piperidin-4-yl)butyloxy]phenylmethyl-3-(benzoylamino)propanoic acid] | 3.1 µM |
| O=C(O)C(O)Cc1ccc(OCCCCC2CCNCC2)cc1 (centres unmarked) [OH, 2-Hydroxy-3-[4-(4-piperidin-4-yl)butyloxyphenyl]propanoic acid] | 8.6 µM |
| O=C(O)C(Cc1ccc(OCCCCC2CCNCC2)cc1)C(=O)O [CO2 H, 2-Carboxy-3-[4-(4-Piperidin-4-yl)butyloxyphenyl]propanoic acid] | 3.2 µM |
| O=C(O)C(Cc1ccc(OCCCCC2CCNCC2)cc1)CS(=O)(=O)Cc1ccccc1 (centres unmarked) [CH2 SO2 CH2 Ph, 2-[4-(4-N-piperidin-4-ylbutyloxy]phenylmethyl]-3-(benzylsulfonyl)propanoic acid] | 1.6 µM |
| CCCCS(=O)(=O)NCC(Cc1ccc(OCCCCC2CCNCC2)cc1)C(=O)O (centres unmarked) [CH2 NHSO2 C4 H9, 2-[4-(4-Piperindin-4-yl)butyloxy]phenylmethyl-3-(n-butylsulfonylamino)propanoic acid] | 2.9 µM |
| COC(=O)C(Cc1ccc(OCCCCC2CCNCC2)cc1)C(=O)O (centres unmarked) [CO2 CH3, 2-(Carbomethoxy)-3-[4-(4-piperidin-4-yl)butyloxyphenyl]propanoic acid] | 5.8 µM |
| O=C(O)C(Cc1ccccc1)Cc1ccc(OCCCCC2CCNCC2)cc1 (centres unmarked) [CH2 Ph, 3-[4-(4-Piperidin-4-yl)butyloxyphenyl]-2-(benzyl)propanoic acid] | 115 µM |
| CCCCS(=O)(=O)CC(Cc1ccc(OCCCCC2CCNCC2)cc1)C(=O)O (centres unmarked) [CH2 SO2 C4 H9, 2-[4-(4-Piperidin-4-yl)butyloxy]phenylmethyl-3-(n-butylsulfonyl)propanoic acid] | 0.65 µM |
